{"source": "paper PMC9124820", "about": "“In vitro evaluation of fenfluramine and norfenfluramine as victims of drug interactions” (Pharmacology Research & Perspectives, 2022)", "key": {"[1]": {"settings": "0.1 mg/kg FFA twice daily with stiripentol plus clobazam, with or without valproate, steady state; ref Prescribing information: https://www.fintepla.com/; cited from earlier work"}, "rCYP1A2": {"target": "T1, rCYP1A2 (Homo sapiens, UniProt P05177)", "T1 construct": "purchased Cypex, Ltd; host or cells: Escherichia coli", "T1 sequence (P05177 1-516)": "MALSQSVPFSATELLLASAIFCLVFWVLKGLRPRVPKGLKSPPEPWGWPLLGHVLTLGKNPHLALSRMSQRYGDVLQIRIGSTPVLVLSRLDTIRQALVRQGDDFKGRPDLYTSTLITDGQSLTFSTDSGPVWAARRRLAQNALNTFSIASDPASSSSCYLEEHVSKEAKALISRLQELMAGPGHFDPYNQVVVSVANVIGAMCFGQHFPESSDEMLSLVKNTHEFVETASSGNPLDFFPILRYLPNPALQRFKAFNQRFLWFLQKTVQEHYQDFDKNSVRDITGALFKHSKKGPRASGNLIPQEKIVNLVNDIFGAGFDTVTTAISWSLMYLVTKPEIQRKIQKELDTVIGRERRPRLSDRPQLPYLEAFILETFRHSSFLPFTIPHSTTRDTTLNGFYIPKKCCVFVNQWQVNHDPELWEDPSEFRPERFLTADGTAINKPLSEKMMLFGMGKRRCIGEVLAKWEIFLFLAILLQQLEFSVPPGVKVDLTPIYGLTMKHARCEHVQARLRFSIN", "assay": "Reaction phenotyping with rCYP1A2", "assay_type": "in vitro ADME", "method": "(§1) For FFA and nFFA reaction phenotyping experiments, LC‐MS/MS experiments were performed using an API 4000 QTRAP or QTRAP 5500 mass spectrometer (SCIEX) with positive electrospray ionization. Chromatography was performed using an Atlantis dC18 analytical column (100 × 2.1 mm, 5 µm; Waters Corporation). Mobile phases were 0.2% v/v formic acid in water and 0.2% v/v formic acid in methanol. FFA and nFFA were eluted at a flow rate of 0.5 mL/min with a linear gradient of 40%−95% methanol from 0.20−2.1 min. The mass transitions monitored were 232.0>109.0 for FFA, 204.0>159.0 for nFFA, 348.0>330.0 for 1’‐hydroxymidazolam‐d4 internal standard (FFA reaction phenotyping), and 262.0>244.0 for hydroxybupropion‐d6 internal standard (nFFA reaction phenotyping). Analyst Instrument Control and Data Processing software (v. 1.6.1) was used for collecting and integrating data (SCIEX). Calibration curves ranging from 1.25 µM−0.01 µM were used to quantify nFFA. Relative quantitation was used to approximate the amount of FFA test material used.\n(§2) Methods used to evaluate the role of CYP450s in the metabolism of FFA have been described.[22], [23], [24] […] Supernatant fractions were analyzed by LC‐MS/MS."}, "rCYP2B6": {"target": "T2, rCYP2B6 (Homo sapiens, UniProt P20813)", "T2 construct": "purchased Cypex, Ltd; host or cells: Escherichia coli", "T2 sequence (P20813 1-491)": "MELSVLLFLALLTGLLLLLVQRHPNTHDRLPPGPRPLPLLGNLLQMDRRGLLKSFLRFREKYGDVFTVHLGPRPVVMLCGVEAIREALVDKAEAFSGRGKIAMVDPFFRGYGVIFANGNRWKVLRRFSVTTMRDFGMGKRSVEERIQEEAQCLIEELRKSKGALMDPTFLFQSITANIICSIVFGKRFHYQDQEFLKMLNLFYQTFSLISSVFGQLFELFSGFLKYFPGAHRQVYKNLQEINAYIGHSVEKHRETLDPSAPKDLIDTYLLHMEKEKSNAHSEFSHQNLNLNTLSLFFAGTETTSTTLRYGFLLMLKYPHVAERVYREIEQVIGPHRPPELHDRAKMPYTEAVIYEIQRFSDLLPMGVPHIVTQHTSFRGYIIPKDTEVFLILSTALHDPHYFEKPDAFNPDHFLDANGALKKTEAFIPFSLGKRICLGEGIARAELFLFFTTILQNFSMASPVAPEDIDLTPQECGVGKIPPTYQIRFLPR", "assay": "Reaction phenotyping with rCYP2B6", "assay_type": "in vitro ADME", "method": "as §1, §2"}}}
{"smiles": "CCNC(C)Cc1cccc(C(F)(F)F)c1", "note": "(racemic) [FFA, (RS)‐ethyl (α‐methyl‐3‐trifluoromethylphenethyl)amine]", "values": [{"measurement": "increase in FFA AUC0‐24", "setting": "[1]", "value": 166, "unit": "%"}, {"measurement": "clearance accounted for in vivo", "setting": "CYP inhibition by stiripentol/clobazam plus renal clearance", "value": "approximately 80%"}, {"measurement": "maximum possible amount remaining for metabolism by MAO", "setting": "human, in vivo, 0.1 mg/kg twice daily", "value": "≤ 20", "unit": "%"}, {"measurement": "Disappearance of FFA", "setting": "rCYP1A2; 1 μM FFA, 25 pmol rCYP1A2, 60 min", "value": 23, "unit": "%"}, {"measurement": "FFA loss", "setting": "rCYP1A2; 10 μM FFA, rCYP1A2, 60 min", "value": 22, "unit": "%"}, {"measurement": "FFA disappearance", "setting": "rCYP2B6; 1 µM FFA, rCYP2B6", "value": 10, "unit": "%"}, {"measurement": "FFA loss", "setting": "rCYP2B6; 10 μM FFA, rCYP2B6, 60 min", "value": 21, "unit": "%"}]}
